According to US20220132839A1, “MOSQUITO ATTRACTANT COMPOSITIONS” (UNIVERSITY OF WASHINGTON, priority 2019, published 2022):
“Also recorded” adds a separate entry of the source.

Assays:
[1] = system: Aedes mosquitoes; experiment: GC-EAD antennal responses, Aedes mosquitoes from the field
Excerpt: (§1) Electroantennogram signals were filtered and amplified (100×; 0.1-500 Hz) using an A-M 1800 amplifier (Sequim, Wash., USA) connected to a personal computer via a BNC-2090A analog-to-digital board (National Instruments, Austin, Tex., USA) and digitized at 20 Hz using WinEDR software (Strathclyde Electrophysiology Software, Glasgow, UK). A Hum Bug noise eliminator (Quest Scientific, Vancouver, Canada) was used to decrease electrical noise. The antennal responses to peaks eluting from the GC were measured for each mosquito preparation, and each peak and mosquito species. Bioactive peaks were those that elicited strong EAD responses, corresponding to deflections beyond the average noise floor of the baseline EAD signal. Responses by each individual preparation were used for Principal Component Analysis (Ade4 package, R). The responses of eight different mosquito species were tested to the scent extracts of three orchid species (n=8 mosquito species for P. obtusata; n=4 mosquito species each for P. stricta and P. huronensis; with 3-17 replicates per mosquito species per orchid, for a total of 109 GC-EAD experiments).
Individual mosquitoes were isolated in Falcon™ tubes (Thermo Fisher Scientific, Pittsburgh, Pa., USA) covered with a piece of fine mesh. They were maintained in a climatic chamber, as previously described, and identified immediately before running the experiment. Carbon dioxide delivered through a pad (Genesee Scientific, San Diego, Calif., USA) was used to briefly anesthetize mosquitoes before transferring them on ice for the dissection. The head was excised and the tip (i.e., one segment) of each antenna was cut off with fine scissors under a binocular microscope (Carl Zeiss, Oberkochen, Germany). The head was then mounted on an electrode composed of a silver wire 0.01″ (A-M Systems, Carlsbord, Wash., USA) and a borosilicate pulled capillary (Sutter Instrument Company, Novato, Calif., USA) filled with a 1:3 mix of saline (L. B. Thien, F. Utech, The mode of pollination in Habenaria obtusata (Orchidaceae). American Journal of Botany 57, 1031-1035 (1970) and electrode gel (Parker Laboratories, Fairfield, N.J., USA) in order to avoid the preparation to desiccate during the experiment. The head was mounted by the neck on the reference electrode. The preparation was then moved to the GC-EAD with the tips of the antennae inserted under the microscope (Optiphot-2, Nikon, Tokyo, Japan) into a recording electrode, that was identical to the reference electrode. The mounted antennae were oriented at 90° from the main airline which was carrying filtered air (Praxair, Danbury, Conn., USA) and volatiles eluting from the Gas-Chromatograph to the preparation via a 200° C. transfer line (EC-05; Syntech GmbH, Buchenbach, Germany). Five microliters of the orchid extract were injected into the Gas Chromatograph with Flame Ionization Detection (Agilent 7820A GC, Agilent Technologies; DB5 column, J&W Scientific, Folsom, Calif., USA). The oven program was the same as the one used for the GC-MS analyses of the scent extracts. The transfer line from the GC to the preparation was set to 200° C.

[2] = system: Ae. increpitus mosquito antennal lobe (AL) glomeruli; experiment: Two-photon calcium imaging (Fluo4) of the antennal lobe, Ae. increpitus; format: in vivo; conditions: for LC2 glomerulus response: single odorants
Experimental: Odor-evoked responses in the Ae. increpitus mosquito antennal lobe (AL) with nine female mosquitoes at the beginning of the season when mosquitoes were relatively young (as defined by wing and scale appearance). Calcium imaging experiments were conducted using application of the calcium indicator Fluo4 to the mosquito brain and using a stage that allows simultaneous calcium imaging and tethered flight. The mosquito was cooled on ice and transferred to a Peltier-cooled holder that enables the mosquito to head to be fixed to the stage using ultraviolet glue. The custom stage permits the superfusion of saline to the head capsule and space for movement by the wings and proboscis. Once the mosquito was fixed to the stage, a window in its head was cut to expose the brain, and the brain was continuously superfused with physiological saline. Next, the perineural sheath was gently removed from the AL using fine forceps and 75 μL of the Fluo4 solution—made by […] of Fluo4 in 30 μL Pluronic F-127 and then subsequently diluted in 950 μL of mosquito physiological saline—was pipetted to the holder allowing the brain to be completely immersed in the dye. Mosquitoes were kept in the dark at 15° C. for 1.5 h (the appropriate time for adequate penetration of the dye into the tissue), after which the brain was washed 3 times with physiological saline. After the rinse, mosquitoes were kept in the dark at room temperature for approximately 10-20 min. before imaging.
Wing stroke amplitudes were acquired and analyzed using a custom camera-based computer vision system at frame rates of 100 Hz, where the mosquito was illuminated with infrared LEDs (880 nm) and images were collected with an infrared-sensitive camera synched to the two-photon system. Stimulus-evoked initiation of flight and changes in the amplitude of the wing-stroke envelope were characterized for each odor stimulus. Calcium-evoked responses in the AL were imaged using the Prairie Ultima IV two-photon excitation microscope (Prairie Technologies) and Ti-Sapphire laser (Chameleon Ultra; Coherent). Experiments were performed at a depth of 40 μm from the ventral surface of the AL, allowing the calcium dynamics from approximately 18-22 glomeruli to be repeatedly imaged across preparations. Images were collected at 2 Hz, and for each odor stimulus images were acquired for 35 s, starting 10 s before the stimulus onset. Imaging data were extracted in Fiji/ImageJ and imported into Matlab (v2017; Mathworks, Natick, Mass.) for Gaussian filtering (2×2 pixel; σ=1.5-3) and alignment using a single frame as the reference at a given imaging depth and subsequently registered to every frame to within ¼ pixel. Trigger-averaged ΔF/F was used for comparing glomerular responses between odor stimuli. […]

[3] = system: Ae. aegypti AL glomeruli; experiment: Two-photon calcium imaging (PUb-GCaMP6s) of the antennal lobe, Ae. aegypti; format: in vivo; conditions: for LC2 glomerulus response: single odorants; for effect of GABA-receptor antagonists on AM2 response to the P. obtusata scent / effect of GABA-receptor antagonists on LC2 and AM2 responses to the P. stricta scent: 1 μM CGP54626, 10 μM picrotoxin focally applied together on to the AL; for AM2 response with increasing dose: different concentrations; for AM2 glomerulus response: odor stimulation; for glomerular responses in the AL: imaged at 40 μm depth, particularly AL3 and LC2 glomeruli for the mixture; for AM2 response to lilac aldehyde/nonanal mixtures / LC2 response to lilac aldehyde/nonanal mixtures: lilac aldehyde and nonanal at different concentration ratios
Excerpt: A total of twenty preparations were used: 10 for single odorant and orchid mixture experiments; 6 for ratio experiments; and 4 for experiments using GABA-receptor antagonists. […] The expression of GCaMP occurred in glia, local interneurons, and projection neurons. […] Thus, in the calcium imaging experiments care was taken to image from the central regions of the glomeruli and avoid the sheaths and external glomerular loci. […] Relatedly, GCaMP6s expression is very high in AL local interneurons and projection neurons (PNs), such that during odor stimulation the PNs and axonal processes can often be imaged, and 3D reconstructions can be take place through simultaneous optical sections with odor stimulation. Nonetheless, the glomerular responses were assumed to be a function of multiple cell types.
Similar to experiments with Ae. increpitus, the majority the mosquitoes were UV-glued to the stage to allow free movement of their wings and proboscis; however, for experiments using GABA-receptor antagonists the proboscis was glued to the stage for additional stability. Once the mosquito was fixed to the stage, a window in its head was cut to expose the brain, and the brain was continuously superfused with physiological saline.
Thus a provisional atlas was created with female mosquitoes (n=6) that allowed for cross-reference of the imaged glomeruli and comparison of their positions and structures to those described in the atlas. This was accomplished via clear glomerular boundaries, especially during odor stimulation, and the distinct odorant tuning of glomeruli throughout the depths of the AL (e.g., AM2 responsive to DEET; LC2 and AL3 responsive to nonanal; PD3 responsive to geosmin; and MD2 responsive to CO2) that allowed 3D registration across preparations and subsequent warping and referencing with the atlas.
Saline and pharmacological agents. The saline was made based on the Beyenbach and Masia recipe (L. B. Thien, F. Utech, The mode of pollination in Habenaria obtusata (Orchidaceae). American Journal of Botany 57, 1031-1035 (1970)) and contained 150.0 mM NaCl, 25.0 mM N-2-hydroxyethyl-piperazine-N′-2-ethanesulfonic acid (HEPES), 5.0 mM sucrose, 3.4 mM KCl, 1.8 mM NaHCO3, 1.7 mM CaCl2, and 1.0 mM MgCl2. The pH was adjusted to 7 with 1 M NaOH. […] […] A drip system comprising two 100 mL reservoirs—one containing the GABA receptor antagonists, and the other saline—converged on the two-channel temperature controller to facilitate rapid switching from normal physiological saline solution to the antagonists and back. Antagonists were superfused directly into the holder near to the opening of the head capsule and recorded neuropil. The odor-evoked responses were first recorded under normal physiological saline solution and then repeated under GABA receptor antagonists diluted in normal saline solution, and finally the normal saline wash. All calcium imaging data were statistically analyzed using Kruskal-Wallis tests with multiple comparisons and visualized using Principal Components Analysis. Analyses were performed in Matlab (v2017; Mathworks, Natick, Mass.).
Olfactory stimuli were delivered to the mosquito by pulses of air diverted through a 2 mL cartridge containing a piece of filter paper bearing the odor stimulus (2 An air line provided gentle and constant charcoal-filtered air at 1 m/s to the antennae allowing continuous ventilation to prevent adaptation of the olfactory receptor cells. The stimulus output was positioned in the air line 2 cm from and orthogonal to the mosquito antennae. For testing different ratios of lilac aldehyde and nonanal, two syringes bearing different concentrations of the odorants were used and positioned such that the outputs were positioned in the same location in the air stream. […]

[4] = system: Culiseta mosquitoes; experiment: GC-EAD antennal responses, Culiseta mosquitoes; design: species or system Culiseta sp.; conditions: peaks of the P. obtusata scent
Excerpt: as §1
Individual mosquitoes were isolated in Falcon™ tubes (Thermo Fisher Scientific, Pittsburgh, Pa., USA) covered with a piece of fine mesh. They were maintained in a climatic chamber, as previously described, and identified immediately before running the experiment. […]

[5] = scents of P. stricta and P. huronensis, Ae. increpitus, Ae. communis, Ae. canadensis and Culiseta sp.
[6] = odorant tuning used for glomerular registration

Molecule: C=CC(C)(O)CCC=C(C)C (racemic) [linalool]
- antennal responses (GC-EAD) [1, 5]: all responded

Molecule: CCCCCCCCO [1-octanol]
- LC2 glomerulus response [2]: strongest response
- LC2 glomerulus response [3]: strongest response

Molecule: C[C@H](NC[C@H](O)CP(=O)(O)CC1CCCCC1)c1ccc(Cl)c(Cl)c1 [CGP54626, reference compound]
- effect of GABA-receptor antagonists on AM2 response to the P. obtusata scent [3]: the effect of nonanal was blocked
- effect of GABA-receptor antagonists on LC2 and AM2 responses to the P. stricta scent [3]: blocked the symmetrical inhibition by nonanal and lilac aldehyde

Molecule: O=C=O [CO2, reference compound]
- MD2 glomerulus response [3, 6]: responsive

Molecule: CCN(CC)C(=O)c1cccc(C)c1 [DEET, N,N-diethyl-meta-toluamide, reference compound]
- AM2 response with increasing dose [3]: significant increases in response with increasing dose
- AM2 glomerulus response [3]: responsive

Molecule: O=Cc1ccccc1 [benzaldehyde]
- antennal responses (GC-EAD) [1, 5]: all responded

Molecule: C=C1C2CCC(C2)C1(C)C (centres unmarked) [camphene]
- antennal responses (GC-EAD) ([1]; peaks of the P. obtusata scent): evoked antennal responses

Molecule: CC1CCCC2(C)CCCCC12O (centres unmarked) [geosmin, reference compound]
- PD3 glomerulus response [3, 6]: responsive

Molecule: C=CC1(C)CCC(C(C)C=O)O1 (centres unmarked) [lilac aldehyde, 5-dimethyl-5-ethenyl-2-tetrahydrofuranacetaldehydes]
- antennal responses (GC-EAD) ([1]; high concentration in the scent of P. stricta, lesser in P. huronensis, antennae of Ae. increpitus and Ae. communis): relatively strong responses
- antennal responses (GC-EAD) ([1]; peaks of the P. obtusata scent): evoked antennal responses
- antennal responses (GC-EAD) [1, 5]: all responded
- AM2 response with increasing dose [3]: significant increases in response with increasing dose
- glomerular responses in the AL [3]: strong responses
- AM2 response to lilac aldehyde/nonanal mixtures [3]: increased AM2 activation
- LC2 response to lilac aldehyde/nonanal mixtures [3]: suppressed the response of LC2 to nonanal
- AM2 glomerulus response to orchid mixtures ([3]; mixtures with lilac aldehyde scaled to other Platanthera species, compared with P. obtusata, Kruskal-Wallis p<0.05): significant increase in AM2 responses
- LC2 glomerulus response to orchid mixtures ([3]; mixtures with lilac aldehyde scaled to other Platanthera species, nonanal as in the P. obtusata mixture, Kruskal-Wallis p<0.05): significant suppression of LC2 response
- AM2 glomerulus response [3]: strongest response; also recorded: responsive

Molecule: CCCCCCCCC=O [nonanal]
- antennal responses (GC-EAD) ([1]; peaks of the P. obtusata scent): evoked antennal responses; also recorded: consistent responses and one of the strongest relative responses
- antennal responses (GC-EAD) [1, 5]: all responded
- antennal responses (GC-EAD) [4]: very little response
- AM2 glomerulus response ([2]; odor stimulation): often exhibited inhibition
- LC2 glomerulus response [2]: strongest response
- glomerular responses in the AL [3]: strong responses
- AM2 response to lilac aldehyde/nonanal mixtures [3]: caused suppression of AM2 responses to lilac aldehyde
- LC2 response to lilac aldehyde/nonanal mixtures [3]: increasing the activation of LC2
- AM2 glomerulus response [3]: often exhibited inhibition
- AL3 glomerulus response [3, 6]: responsive
- LC2 glomerulus response [3]: responsive; also recorded: strongest response

Molecule: CCCCCCCC=O [octanal]
- antennal responses (GC-EAD) ([1]; peaks of the P. obtusata scent): evoked antennal responses
- LC2 glomerulus response [2]: strongest response
- glomerular responses in the AL [3]: strong responses
- LC2 glomerulus response [3]: strongest response

Molecule: CC1=CCC2CC1C2(C)C (stereo not drawn) [α-pinene]
- antennal responses (GC-EAD) ([1]; peaks of the P. obtusata scent): evoked antennal responses

Molecule: C=CC(=C)CCC=C(C)C [β-myrcene]
- antennal responses (GC-EAD) [1, 5]: all responded

Molecule: C=C1CCC2CC1C2(C)C (stereo not drawn) [β-pinene]
- antennal responses (GC-EAD) ([1]; peaks of the P. obtusata scent): evoked antennal responses

Molecule: picrotoxin [reference compound]
- effect of GABA-receptor antagonists on AM2 response to the P. obtusata scent [3]: the effect of nonanal was blocked
- effect of GABA-receptor antagonists on LC2 and AM2 responses to the P. stricta scent [3]: blocked the symmetrical inhibition by nonanal and lilac aldehyde
